Columns and labels:
[1] = test system: healthy haematopoietic stem/progenitor cells; assay: Clonogenic capacity of lineage-depleted umbilical cord blood cells; format: cell-based, human; settings: 10 μM for 18 h, then 14 days in methylcellulose
Description: FIG. 11. […] Cells were then cultivated in Methylcellulose supplemented with haematopoietic cytokines for 14 days. The number of colonies obtained was measured by microscopy based on morphological criteria. A. Total number of colonies is represented. CFU: colony-forming units. B. Frequency of each colony subtype is shown (CFU-Mix, Mix lineaged colony; CFU-GM, granulo-monocyte colony; CFU-G, granulocyte colony; CFU-M, monocyte colony; BFU-E erythrocyte blast colony). 4 primary umbilical cord blood samples were analyzed.
Next, lineage-depleted umbilical cord blood cells were treated with Apomorphine or Methiothepin as done above for AML cells. 14 days after plating, colonies were counted by light microscopy based on morphology and cellularity.

MonoMac-1 cells = assay: In vivo xenotransplantation mouse model (NSG mice injected with MonoMac-1 cells); settings: IP every other day, day 7 to 14; apomorphine 5 mg/kg, methiothepin 0.1 mg/kg; versus vehicle
Description: FIG. 15. Treatment with 5HTR1 antagonists reduce AML burden in an in vivo xenotransplantation mouse model. 6-8 week-old NOD.Cg-Prkdc^scid Il2rg^tm1Wj1/SzJ (NSG) mice were myeloablated with busulfan (30 mg/kg IP) at day 0. At day 1, 10^6 MonoMac-1 cells were injected IV. From day 7 to day 14, mice were treated IP every other day with apomorphine (5 mg/kg) or methiothepin (0.1 mg/kg), while control mice were treated with saline vehicle (0.9% NaCl). At day 15, mice were sacrificed and their bones (iliac crests, femurs and tibias) were harvested and analyzed for the presence of human cells. Bone marrow samples were measured by flow cytometry. Frequency of human CD45 positive cells (upper panel) and total human CD45 positive cells (lower panel) in BM refer to control. Bars represent the mean value. Error bars represent SEM. **p<0.01; ***p<0.001.
Leukemia cells mainly reside in the bone marrow niche where the stroma cell compartment provides paracrine signaling that strongly mediates their survival and proliferation and protects them from apoptosis ( ). Accordingly, conditioned immunodeficient NOD.Cg-Prkdc^scid Il2rg^tm1Wj1/SzJ (NSG) mice (Sanchez et al Leukemia. 2009 November; 23(11):2109-17) were transplanted with human AML cells and left for 7 days for the leukemia to be established. […]

primary AML blasts = assay: Cell viability of primary patient AML samples (bulk and CD34+CD38- primitive population); format: cell-based, human; settings: 0.1, 1 and 10 μM, 24 and 72 h
Description: FIG. 3. […] The primitive AML population was identified within the AML bulk population based on their positivity to CD34 and negativity to CD38. […] Cell number was calculated by volumetric count. 11 primary AML samples were analyzed in triplicates. Each symbol represents a specific AML patient.
FIG. 4. […] The primitive AML population was identified within the AML bulk population based on their positivity to CD34 and negativity to CD38. […] Cell number was calculated by volumetric count. 11 primary AML samples were analyzed in triplicates. Each symbol represents a specific AML patient.
Primary AML patient samples were treated with subtype 1 and 2 HTR antagonists for 24 and 72 h at 0.1, 1 and 10 μM. Five hundred thousand cells per mL were seeded in IMDM supplemented with insulin, transferrin, bovine serum albumin, IL3 and non-essential aminoacids. Cell viability was measured by flow cytometry as described above.
Like the normal haematopoietic system, AML is thought to be organized as a hierarchy of distinct and functionally heterogeneous classes of cells that is ultimately sustained by a small number of leukaemic stem cells (LSCs) with enhanced self-renewal capacity, impaired differentiation ability, and increase drug resistance (Bonnet and Dick Nat Med. 1997; 3(7):730-7). The LSC population is found enriched inside the CD34+CD38− AML blast population.

engrafted healthy HSCs = assay: CFU assay of engrafted healthy HSCs; format: cell-based; settings: engrafted human cells from primary transplanted mice
Description: FIG. 17. Treatments with 5HTR antagonists reduce the leukemia regeneration capacity of primary AML samples in secondary recipient, without affecting normal hematopoiesis. Upper panel. 3-10×10^5 engrafted bone marrow cells from primary transplanted mice were injected intravenously into secondary recipients (conditioned NSG mice) and left untreated for 8 weeks. Bone marrow cells were analyzed as in FIG. 16. Frequency of human CD45 positive cells referred to control is represented. Lower panel. 50×10^3 engrafted human cells were screened for CFUs. The normalized number of CFUs obtained is represented. *p<0.05; ***p<0.005; ****p<0.0001.
In order to assay the in vivo self-renewal capacity remaining in the engrafted samples, secondary transplants were performed. Less than 35% of AML cells were detected in mice injected with apomorphine- or methiothepin-treated cells (FIG. 17).

primary AML samples = assay: Clonogenic capacity (CFU-B) of primary AML samples in methylcellulose; format: cell-based, human; settings: 10 μM for 18 h, then 14 days in methylcellulose
Description: FIG. 10. The clonogenic capacity of primary AML samples is reduced upon 5HTR antagonist treatment. […] Cells were then cultivated in Methylcellulose supplemented with hematopoietic cytokines for 14 days. The number of CFU-B obtained was measured by microscopy based on morphological criteria. 7 primary AML blood samples were analyzed. Each symbol represents a specific patient sample. Lines represent the median. *p<0.05. CFU-B: Blast colony-forming units.
Taking into account that 5HTR antagonists reduced the cell viability of the most primitive AML population, the clonogenic capacity upon treatment was investigated. Primary patient AML samples were cultured in the presence of Apomorphine and Methiothepin for 18 h and plated in a semi-solid methylcellulose media for 14 days in the presence of instructive cytokines at a concentration of fifty thousand cells per mL. Colonies were counted by light microscopy based on morphology and cellularity.

[2] = test system: primary CFU-Bs from AML patients; assay: Secondary CFU replating of pretreated primary AML CFU-Bs; format: cell-based, human; settings: primary CFUs pretreated with 10 μM, replated 14 days without drug

## CN1CCc2cccc3c2[C@H]1Cc1ccc(O)c(O)c1-3 [Apomorphine, (6aR)-6-methyl-5,6,6a,7-tetrahydro-4H-dibenzo[de,g]quinoline-10,11-diol]
[1]
  clonogenic capacity of healthy haematopoietic stem/progenitor cells (total colonies, frequency of CFU subtypes): None of the 5HTR antagonists affected the clonogenic capacity
MonoMac-1 cells
  AML burden in bone marrow: significant reduction in AML burden
Primary AML blasts; bulk population
  cell death on primary AML blasts: induced cell death on primary AML blasts in a dose-response fashion
Primary AML blasts; CD34+CD38- population
  cell viability of the most primitive LSC-enriched blast population: reduced cell viability
Engrafted healthy HSCs
  clonogenic capacity of engrafted healthy HSCs (CFU assays): little effect
Primary AML samples
  clonogenic capacity of primary AML samples (number of CFU-B): reduced the clonogenic capacity
[2]
  clonogenic capacity in secondary CFUs: a reduction in the clonogenic capacity was observed

Reference: patent publication US11337984B2, “Methods for treating, diagnosing and prognosing a haematological malignancy” (Institut de Recerca Contra La Leucèmia Josep Carreras, priority 2014, dated 2022)
